Assay results taken from paper PMC7403827 (Clinical and Translational Medicine, 2020).

Assay: Adverse events (CTCAE 4.0) under apatinib plus gefitinib
Type: in vivo, human
[1] = Apatinib 500 mg Cohort (n = 6), with gefitinib 250 mg, treatment‐related AE, patients (%)

In the case of `N#CC1(c2ccc(NC(=O)c3cccnc3NCc3ccncc3)cc2)CCCC1` [Apatinib], the “Abdominal distention, ALL” value [1] is reported as 0, the “Abdominal distention, Grade 1–2” value [1] is reported as 0 and the “Abdominal distention, Grade 3–4” value [1] is reported as 0. For the same compound, the “Blurred vision, ALL” value [1] was 1 (16.7%), the “Blurred vision, Grade 1–2” value [1] was 1 (16.7%) and the “Blurred vision, Grade 3–4” value [1] was 0. The “Cough, ALL” value [1] was 1 (16.7%), the “Cough, Grade 1–2” value [1] was 1 (16.7%) and the “Cough, Grade 3–4” value [1] was 0. The “Diarrhea, ALL” value [1] was 4 (66.7%), the “Diarrhea, Grade 1–2” value [1] was 3 (50.0%) and the “Diarrhea, Grade 3–4” value [1] was 1 (16.7%). For the same compound, the “Dizziness, ALL” value [1] was 1 (16.7%), the “Dizziness, Grade 1–2” value [1] was 1 (16.7%) and the “Dizziness, Grade 3–4” value [1] was 0. For the same compound, the “Dry skin, ALL” value [1] was 1 (16.7%), the “Dry skin, Grade 1–2” value [1] was 1 (16.7%) and the “Dry skin, Grade 3–4” value [1] was 0. For the same compound, the “Dysgeusia, ALL” value [1] was 0, the “Dysgeusia, Grade 1–2” value [1] was 0 and the “Dysgeusia, Grade 3–4” value [1] was 0. The “Eczema, ALL” value [1] was 0, the “Eczema, Grade 1–2” value [1] was 0 and the “Eczema, Grade 3–4” value [1] was 0. The “Elevated ALT, ALL” value [1] was 5 (83.3%), the “Elevated ALT, Grade 1–2” value [1] was 4 (66.7%) and the “Elevated ALT, Grade 3–4” value [1] was 1 (16.7%). The “Elevated AST, ALL” value [1] was 3 (50.0%), the “Elevated AST, Grade 1–2” value [1] was 3 (50%) and the “Elevated AST, Grade 3–4” value [1] was 0. For the same compound, the “Epistaxis, ALL” value [1] was 1 (16.7%), the “Epistaxis, Grade 1–2” value [1] was 1 (16.7%) and the “Epistaxis, Grade 3–4” value [1] was 0. For the same compound, the “Fatigue, ALL” value [1] was 1 (16.7%), the “Fatigue, Grade 1–2” value [1] was 1 (16.7%) and the “Fatigue, Grade 3–4” value [1] was 0. For the same compound, the “Gastrointestinal bleeding, ALL” value [1] was 0, the “Gastrointestinal bleeding, Grade 1–2” value [1] was 0 and the “Gastrointestinal bleeding, Grade 3–4” value [1] was 0. The “HFSR, ALL” value [1] was 2 (33.3%), the “HFSR, Grade 1–2” value [1] was 2 (33.3%) and the “HFSR, Grade 3–4” value [1] was 0. For the same compound, the “Haematuria, ALL” value [1] was 0, the “Haematuria, Grade 1–2” value [1] was 0 and the “Haematuria, Grade 3–4” value [1] was 0. The “Headache, ALL” value [1] was 0, the “Headache, Grade 1–2” value [1] was 0 and the “Headache, Grade 3–4” value [1] was 0. For the same compound, the “Hematochezia, ALL” value [1] was 0, the “Hematochezia, Grade 1–2” value [1] was 0 and the “Hematochezia, Grade 3–4” value [1] was 0. The “Hypertension, ALL” value [1] was 4 (66.7%), the “Hypertension, Grade 1–2” value [1] was 3 (50.0%) and the “Hypertension, Grade 3–4” value [1] was 1 (16.7%). The “Increased bilirubin, ALL” value [1] was 1 (16.7%), the “Increased bilirubin, Grade 1–2” value [1] was 1 (16.7%) and the “Increased bilirubin, Grade 3–4” value [1] was 0. For the same compound, the “Increased creatinine, ALL” value [1] was 1 (16.7%), the “Increased creatinine, Grade 1–2” value [1] was 1 (16.7%) and the “Increased creatinine, Grade 3–4” value [1] was 0. The “Leukopenia, ALL” value [1] was 1 (16.7%), the “Leukopenia, Grade 1–2” value [1] was 1 (16.7%) and the “Leukopenia, Grade 3–4” value [1] was 0. The “Nausea, ALL” value [1] was 3 (50.0%), the “Nausea, Grade 1–2” value [1] was 3 (50.0%) and the “Nausea, Grade 3–4” value [1] was 0. The “Neutropenia, ALL” value [1] was 1 (16.7%), the “Neutropenia, Grade 1–2” value [1] was 1 (16.7%) and the “Neutropenia, Grade 3–4” value [1] was 0. The “Oulorrhagia, ALL” value [1] was 0, the “Oulorrhagia, Grade 1–2” value [1] was 0 and the “Oulorrhagia, Grade 3–4” value [1] was 0. The “Paronychia, ALL” value [1] was 0, the “Paronychia, Grade 1–2” value [1] was 0 and the “Paronychia, Grade 3–4” value [1] was 0. The “Periodontitis, ALL” value [1] was 0, the “Periodontitis, Grade 1–2” value [1] was 0 and the “Periodontitis, Grade 3–4” value [1] was 0. The “Pharyngalgia, ALL” value [1] was 0, the “Pharyngalgia, Grade 1–2” value [1] was 0 and the “Pharyngalgia, Grade 3–4” value [1] was 0. For the same compound, the “Pneumonia (non‐interstitial), ALL” value [1] was 0, the “Pneumonia (non‐interstitial), Grade 1–2” value [1] was 0 and the “Pneumonia (non‐interstitial), Grade 3–4” value [1] was 0. For the same compound, the “Proteinuria, ALL” value [1] was 4 (66.7%), the “Proteinuria, Grade 1–2” value [1] was 2 (33.3%) and the “Proteinuria, Grade 3–4” value [1] was 2 (33.3%). For the same compound, the “Pruritus, ALL” value [1] was 1 (16.7%), the “Pruritus, Grade 1–2” value [1] was 1 (16.7%) and the “Pruritus, Grade 3–4” value [1] was 0. For the same compound, the “Rash, ALL” value [1] was 6 (100%), the “Rash, Grade 1–2” value [1] was 6 (100%) and the “Rash, Grade 3–4” value [1] was 0. For the same compound, the “Stomatitis, ALL” value [1] was 0, the “Stomatitis, Grade 1–2” value [1] was 0 and the “Stomatitis, Grade 3–4” value [1] was 0. For the same compound, the “Thrombocytopenia, ALL” value [1] was 2 (33.3%), the “Thrombocytopenia, Grade 1–2” value [1] was 2 (33.3%) and the “Thrombocytopenia, Grade 3–4” value [1] was 0. For the same compound, the “Trachyphonia, ALL” value [1] was 1 (16.7%), the “Trachyphonia, Grade 1–2” value [1] was 1 (16.7%) and the “Trachyphonia, Grade 3–4” value [1] was 0. For the same compound, the “Vomiting, ALL” value [1] was 2 (33.3%), the “Vomiting, Grade 1–2” value [1] was 2 (33.3%) and the “Vomiting, Grade 3–4” value [1] was 0. For the same compound, the “Serious Adverse Event” value (Patient 007, Apatinib Dose 500 mg, Discontinuation, Correlation with Apatinib Yes, Remission) was “Hypertension”.
